Values quoted from earlier work, collected in US8227599B2, “Adsorbents comprising anthraquinone dye-ligends for the separation of biological materials” (BASF SE, priority 2005, dated 2012).

Test system: Aspergillus terreus NADP-glutamate Dehydrogenase

## Nc1c(S(=O)(=O)[O-])cc(Nc2ccc(Nc3nc(Cl)nc(Nc4ccccc4S(=O)(=O)[O-])n3)c(S(=O)(=O)[O-])c2)c2c1C(=O)c1ccccc1C2=O.[Na+].[Na+].[Na+] [Cibacron Blue 3GA]
  Binding of NADP-GDH to the dye: does not bind
